The values that follow come from patent publication US20190241569A1, “3-(ARYL OR HETEROARYL) METHYLENEINDOLIN-2-ONE DERIVATIVES AS INHIBITORS OF CANCER STEM CELL PATHWAY KINASES FOR THE TREATMENT OF CANCER” (Boston Biomedical, Inc., priority 2013, published 2019).

The structures appear in SMILES notation.

Common to all, as to format: cell-based
One assay relates to A549. As to the kind of experiment: Bulk cancer cells, Cell Titer-Glo 72 hours (Test Example 2). The settings on record: Homo sapiens. As to the method: (§1) Tubes of 3× drug (60 uM in 500 uL complete media) were prepared from 5 mM stock solutions in DMSO. […] To treat cells, 50 uL of drug from the dilution plate was removed and added to the cell plates. […] Cells were harvested 72 hours after drug addition using Cell Titer-Glo (Promega) and luminescence measured on a plate reader.

In another assay the test system is ACHN. Described as above. The settings on record: Homo sapiens, ACHN, 72 h. As for the experimental part:
as §1

Another assay relates to FaDu. Described as above. The settings on record: Homo sapiens. As to the method:
as §1

The next assay concerns FaDu CSC. Put plainly: Cancer stem cells, Cell Titer-Glo 72 hours (Test Example 3). The settings on record: Homo sapiens, FaDu, 72 h. On the technique in general: Cellular ATP, detected with luciferase, serves as a proxy for viable cell number.
For another assay, the system named is A549 CSC. The description is as above. The settings on record: Homo sapiens.
A further assay concerns ACHN CSC. Described as above. The settings on record: Homo sapiens, ACHN, 72 h.

`CCN(CC)CCNC(=O)c1c(C)[nH]c(/C=C2\C(=O)Nc3ccc(-c4cnccn4)cc32)c1C` [Example 180]: the IC50 (usually the concentration needed to halve the response being measured) was 10.6 µM in the assay on A549; 10.1 µM in the assay with ACHN; 6.62 µM in the assay on FaDu; 0.23 µM with FaDu CSC; 13.2 µM in the assay on A549 CSC; 2.65 µM in the assay with ACHN CSC.
Regarding `CCN(CC)CCNC(=O)c1c(C)[nH]c(/C=C2\C(=O)Nc3ccc(-c4cnc5cn[nH]c5c4)cc32)c1C` [Example 181], the IC50 in the assay with A549 turned out to be 3.24 µM; with ACHN, 2.74 µM; with FaDu, 1.49 µM; with FaDu CSC, 0.16 µM; in the assay with A549 CSC, 26.4 µM; with ACHN CSC it was 10.8 µM.
On to `CCN(CC)CCNC(=O)c1c(C)[nH]c(/C=C2\C(=O)Nc3ccc(-c4ncccn4)cc32)c1C` [Example 182], for which the IC50 in the assay with A549 is 15.4 µM; in the assay on ACHN it was 3.5 µM; with FaDu, 6.02 µM; in the assay on FaDu CSC, 0.09 µM; in the assay on A549 CSC, 18 µM; in the assay with ACHN CSC, 1.15 µM.
As for `CCN(CC)CCNC(=O)c1c(C)[nH]c(/C=C2\C(=O)Nc3ccc(-c4ccccn4)cc32)c1C` [Example 183], the IC50 with A549 stood at 7.23 µM; with ACHN it was 2.26 µM; with FaDu, 2.56 µM; in the assay on FaDu CSC it was 0.18 µM; in the assay with A549 CSC, 5.45 µM; with ACHN CSC, 1.06 µM.
Regarding `CCN(CC)CCNC(=O)c1c(C)[nH]c(/C=C2\C(=O)Nc3ccc(-c4ccc(C)cn4)cc32)c1C` [Example 184], the IC50 amounted to 6.51 µM with A549; 2.92 µM with ACHN; 3.05 µM with FaDu; 0.22 µM in the assay with FaDu CSC; 3.38 µM with A549 CSC; 1.16 µM in the assay on ACHN CSC.
Consider `CCN(CC)CCNC(=O)c1c(C)[nH]c(/C=C2\C(=O)Nc3ccc(-c4cnc5ccccc5n4)cc32)c1C` [Example 185], for which the IC50 in the assay with A549 was 8.13 µM; in the assay with ACHN, 5.73 µM; with FaDu, 2.66 µM; in the assay on FaDu CSC it was 0.04 µM; in the assay on A549 CSC it was 42.3 µM; in the assay with ACHN CSC, 5.59 µM.
On to `CCN(CC)CCNC(=O)c1c(C)[nH]c(/C=C2\C(=O)Nc3ccc(-c4nccc5ccccc45)cc32)c1C` [Example 187], for which the concentration for half-maximal inhibition (IC50) stood at 3.18 µM in the assay with A549; 5.05 µM with ACHN; 2.13 µM in the assay on FaDu; 0.03 µM in the assay on FaDu CSC; 13.9 µM in the assay on A549 CSC; 0.71 µM in the assay on ACHN CSC.
On to `CCN(CC)CCNC(=O)c1c(C)[nH]c(/C=C2\C(=O)Nc3ccc(-c4ccc(OC)cn4)cc32)c1C` [Example 188], for which the IC50 with A549 was determined as 10.8 µM; in the assay on ACHN, 6.44 µM; with FaDu, 7.01 µM; in the assay on FaDu CSC it was 0.16 µM; with A549 CSC, 8.89 µM; in the assay on ACHN CSC, 1.08 µM.
Take `CCN(CC)CCNC(=O)c1c(C)[nH]c(/C=C2\C(=O)Nc3ccc(-c4ncccc4OC)cc32)c1C` [Example 189]: the IC50 with A549 turned out to be 7.48 µM; with ACHN, 7.14 µM; with FaDu, 2.63 µM; in the assay on FaDu CSC it was 0.07 µM; with A549 CSC, 6.84 µM; in the assay on ACHN CSC, 1.41 µM.
Regarding `CCN(CC)CCNC(=O)c1c(C)[nH]c(/C=C2\C(=O)Nc3ccc(-c4cccc(OC)n4)cc32)c1C` [Example 190], the IC50 with A549 was 2.79 µM; in the assay on ACHN, 1.96 µM; in the assay with FaDu, 1.76 µM; in the assay with FaDu CSC, 0.19 µM; in the assay with A549 CSC, 2.24 µM; in the assay on ACHN CSC, 0.24 µM.
Turning to `CCN(CC)CCNC(=O)c1c(C)[nH]c(/C=C2\C(=O)Nc3ccc(-c4nc5ccccc5s4)cc32)c1C` [Example 191], the IC50 is 3.73 µM in the assay with A549; 9.53 µM in the assay with ACHN; 4.93 µM in the assay on FaDu; 5.97 µM in the assay with FaDu CSC; 4.13 µM in the assay with A549 CSC; 0.98 µM in the assay with ACHN CSC.
In the case of `CCN(CC)CCNC(=O)c1c(C)[nH]c(/C=C2\C(=O)Nc3ccc(-c4cnc5ccccn45)cc32)c1C` [Example 192], the half-inhibitory concentration (IC50) in the assay on A549 was determined as 5.86 µM; in the assay with ACHN, 4.65 µM; with FaDu it was 4.63 µM; with FaDu CSC, 17.6 µM; in the assay with A549 CSC, 17.2 µM; in the assay with ACHN CSC, 3.44 µM.
As to `CCN(CC)CCNC(=O)c1c(C)[nH]c(/C=C2\C(=O)Nc3ccc(-c4ccc(-c5ccccc5)nc4)cc32)c1C` [Example 194], the IC50 is 2.3 µM in the assay on A549; 7.41 µM with ACHN; 4.92 µM in the assay on FaDu; 3.96 µM with FaDu CSC; 6.45 µM in the assay with A549 CSC; 0.63 µM with ACHN CSC.
On to `CCN(CC)CCNC(=O)c1c(C)[nH]c(/C=C2\C(=O)Nc3ccc(-c4csc(-n5cccn5)n4)cc32)c1C` [Example 195], for which the IC50 in the assay with A549 worked out at 3.71 µM; with ACHN, 7.88 µM; in the assay with FaDu, 4.68 µM; in the assay with FaDu CSC it was 5.11 µM; in the assay with A549 CSC it was 6.64 µM; in the assay on ACHN CSC it was 0.62 µM.
`CCN(CC)CCNC(=O)c1c(C)[nH]c(/C=C2\C(=O)Nc3ccc(-c4csc(-n5ccnc5)n4)cc32)c1C` [Example 196]: the IC50 in the assay with A549 came to 6.16 µM; in the assay on ACHN, 9.57 µM; in the assay with FaDu it was 5.57 µM; with FaDu CSC, 21.7 µM; in the assay with A549 CSC it was 18.8 µM; in the assay with ACHN CSC it was 2.99 µM.
`CCN(CC)CCNC(=O)c1c(C)[nH]c(/C=C2\C(=O)Nc3ccc(-c4cc(-c5ccccc5)ccn4)cc32)c1C` [Example 198]: the IC50 came out at 1.5 µM in the assay on A549; 2.41 µM in the assay on ACHN; 2.58 µM with FaDu; 9.67 µM in the assay with FaDu CSC; 2 µM with A549 CSC; 0.9 µM in the assay on ACHN CSC.
On to `CCN(CC)CCNC(=O)c1c(C)[nH]c(/C=C2\C(=O)Nc3ccc(-c4cnsc4)cc32)c1C` [Example 200], for which the IC50 came out at 3.79 µM in the assay on A549; 4.58 µM in the assay on ACHN; 3.17 µM in the assay with FaDu; 3.42 µM in the assay with FaDu CSC; 6.66 µM in the assay with A549 CSC; 0.64 µM in the assay on ACHN CSC.
Regarding `CCN(CC)CCNC(=O)c1c(C)[nH]c(/C=C2\C(=O)Nc3ccc(-c4ncccc4C)cc32)c1C` [Example 203], the IC50 in the assay with A549 is 4.14 µM; in the assay on ACHN it was 4.15 µM; in the assay on FaDu, 7.67 µM; in the assay with FaDu CSC it was 20 µM; in the assay with A549 CSC, 13.1 µM; with ACHN CSC it was 1.88 µM.
In the case of `CCN(CC)CCNC(=O)c1c(C)[nH]c(/C=C2\C(=O)Nc3ccc(-c4cnc5ccccc5c4)cc32)c1C` [Example 204], the IC50 in the assay with A549 was 3.85 µM; in the assay with ACHN, 6.39 µM; in the assay on FaDu, 4.59 µM; in the assay on FaDu CSC, 5.47 µM; in the assay with A549 CSC, 6.83 µM; in the assay with ACHN CSC it was 0.62 µM.
`CCN(CC)CCNC(=O)c1c(C)[nH]c(/C=C2\C(=O)Nc3ccc(-c4cccc(C#N)c4C)cc32)c1C` [Example 205]: the IC50 in the assay on A549 came out at 2.8 µM; with ACHN, 5.23 µM; in the assay with FaDu, 4.27 µM; in the assay on FaDu CSC it was 4.73 µM; in the assay with A549 CSC it was 4.48 µM; with ACHN CSC, 0.57 µM.
Regarding `CCN(CC)CCNC(=O)c1c(C)[nH]c(/C=C2\C(=O)Nc3ccc(-c4cscc4C)cc32)c1C` [Example 206], the IC50 in the assay with A549 was 2.01 µM; in the assay on ACHN, 2.68 µM; in the assay with FaDu, 3.74 µM; in the assay on FaDu CSC, 9.1 µM; in the assay on A549 CSC it was 3.94 µM; in the assay on ACHN CSC, 0.48 µM.
As for `CCN(CC)CCNC(=O)c1c(C)[nH]c(/C=C2\C(=O)Nc3ccc(-c4cncnc4)cc32)c1C` [Example 207], the IC50 in the assay with A549 came out at 7.33 µM; in the assay with ACHN, 3.66 µM; with FaDu, 4.55 µM; in the assay on FaDu CSC, 10.1 µM; with A549 CSC it was 18 µM; in the assay with ACHN CSC it was 0.55 µM.
Consider `CCN(CC)CCNC(=O)c1c(C)[nH]c(/C=C2\C(=O)Nc3ccc(-c4ccncc4)cc32)c1C` [Example 208], for which the IC50 in the assay with A549 turned out to be 7.07 µM; in the assay on ACHN, 11.6 µM; with FaDu it was 6.81 µM; in the assay with FaDu CSC, 16.2 µM; in the assay with A549 CSC, 9.85 µM; in the assay on ACHN CSC, 2.14 µM.
Take `CCN(CC)CCNC(=O)c1c(C)[nH]c(/C=C2\C(=O)Nc3ccc(-c4ccc(C(=O)O)s4)cc32)c1C` [Example 209]: the IC50 in the assay with A549 was found to be 2.2 µM; in the assay on ACHN, 2.04 µM; in the assay with FaDu, 1.21 µM; in the assay on FaDu CSC, 4.3 µM; in the assay on A549 CSC, 8.82 µM; with ACHN CSC it was 2.28 µM.
On to `Cc1cc(C)c(/C=C2\C(=O)Nc3ccc(-c4csc(-n5ccnc5)n4)cc32)[nH]1` [Example 215], for which the concentration for half-maximal inhibition (IC50) turned out to be 9.31 µM in the assay on A549; 8.84 µM with ACHN; 14.5 µM with FaDu; 37.4 µM in the assay on FaDu CSC; 35 µM in the assay with A549 CSC; 2.72 µM with ACHN CSC.
In the case of `Cc1cc(C)c(/C=C2\C(=O)Nc3ccc(-c4n[nH]c5ccccc45)cc32)[nH]1` [Example 231], the IC50 amounted to 6.45 µM in the assay on A549; 8.73 µM with ACHN; 4.43 µM with FaDu; 5.33 µM in the assay with FaDu CSC; 7.28 µM with A549 CSC; 3.1 µM in the assay with ACHN CSC.
As for `CCN(CC)CCNC(=O)c1c(C)[nH]c(/C=C2\C(=O)Nc3cc(-c4cnc5ccccc5n4)ccc32)c1C` [Example 251], the IC50 with A549 was 7.07 µM; with ACHN, 10.9 µM; in the assay with FaDu, 7.45 µM; in the assay on FaDu CSC it was 2.24 µM; in the assay on A549 CSC, 42.6 µM; with ACHN CSC, 6.97 µM.
